We go through seven compounds from PMC11062922 (Nature Chemical Biology, 2023).

For one test, the target named is T1, MAP3K6 (Homo sapiens, UniProt O95382).
T1 construct: endogenous in cells
T1 sequence (O95382 1-1288): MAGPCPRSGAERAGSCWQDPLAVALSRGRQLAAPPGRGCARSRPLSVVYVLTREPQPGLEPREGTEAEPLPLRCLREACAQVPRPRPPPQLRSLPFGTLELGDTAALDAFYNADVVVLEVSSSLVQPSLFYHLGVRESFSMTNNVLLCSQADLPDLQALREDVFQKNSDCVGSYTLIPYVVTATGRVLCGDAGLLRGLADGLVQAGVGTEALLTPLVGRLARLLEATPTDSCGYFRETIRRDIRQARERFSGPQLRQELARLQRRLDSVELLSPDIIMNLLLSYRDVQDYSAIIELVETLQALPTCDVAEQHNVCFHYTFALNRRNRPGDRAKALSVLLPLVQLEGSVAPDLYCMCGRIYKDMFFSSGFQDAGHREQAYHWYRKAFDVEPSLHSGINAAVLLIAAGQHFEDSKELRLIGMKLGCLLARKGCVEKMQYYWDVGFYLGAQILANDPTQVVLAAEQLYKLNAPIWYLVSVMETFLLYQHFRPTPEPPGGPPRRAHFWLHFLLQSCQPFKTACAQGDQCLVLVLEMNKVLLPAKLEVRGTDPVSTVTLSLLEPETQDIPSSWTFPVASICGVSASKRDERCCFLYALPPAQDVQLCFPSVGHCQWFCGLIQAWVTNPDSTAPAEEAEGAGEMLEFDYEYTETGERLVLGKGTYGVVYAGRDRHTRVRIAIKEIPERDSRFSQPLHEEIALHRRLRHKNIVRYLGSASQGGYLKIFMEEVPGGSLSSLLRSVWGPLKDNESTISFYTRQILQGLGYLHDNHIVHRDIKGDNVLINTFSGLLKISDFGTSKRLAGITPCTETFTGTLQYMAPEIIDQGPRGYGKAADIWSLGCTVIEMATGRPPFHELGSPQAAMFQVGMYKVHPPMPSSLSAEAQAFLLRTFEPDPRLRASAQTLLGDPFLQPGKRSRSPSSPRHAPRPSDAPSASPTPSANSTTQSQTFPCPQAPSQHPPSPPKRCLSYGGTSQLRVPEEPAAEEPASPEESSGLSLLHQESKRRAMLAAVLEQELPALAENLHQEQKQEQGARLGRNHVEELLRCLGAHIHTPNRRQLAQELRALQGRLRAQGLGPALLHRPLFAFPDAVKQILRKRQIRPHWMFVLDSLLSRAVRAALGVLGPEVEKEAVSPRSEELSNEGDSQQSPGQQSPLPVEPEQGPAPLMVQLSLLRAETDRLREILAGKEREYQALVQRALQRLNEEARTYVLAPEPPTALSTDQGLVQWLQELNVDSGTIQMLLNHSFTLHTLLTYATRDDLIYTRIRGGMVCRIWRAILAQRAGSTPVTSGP
Nature of the test: Kinobeads two-dose competition binding: MAP3K6. Particulars: for CATDS: target MAP3K6.

Another test has as its target T2, CHECK1 (Homo sapiens, UniProt O14757).
T2 construct: endogenous in cells
T2 sequence (O14757 1-476): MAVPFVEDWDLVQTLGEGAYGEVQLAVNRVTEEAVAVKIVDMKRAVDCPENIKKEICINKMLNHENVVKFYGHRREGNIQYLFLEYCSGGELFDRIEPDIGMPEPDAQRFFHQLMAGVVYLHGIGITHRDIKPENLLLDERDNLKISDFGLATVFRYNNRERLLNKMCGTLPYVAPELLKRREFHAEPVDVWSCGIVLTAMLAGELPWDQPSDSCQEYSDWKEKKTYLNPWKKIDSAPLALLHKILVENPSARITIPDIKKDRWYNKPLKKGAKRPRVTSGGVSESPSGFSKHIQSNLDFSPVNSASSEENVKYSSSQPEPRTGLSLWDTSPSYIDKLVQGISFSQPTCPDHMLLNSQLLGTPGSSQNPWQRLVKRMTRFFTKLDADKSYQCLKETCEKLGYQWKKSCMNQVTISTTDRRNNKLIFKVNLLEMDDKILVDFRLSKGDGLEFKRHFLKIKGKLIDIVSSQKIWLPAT
Nature of the test: Kinobeads two-dose competition binding: CHECK1. Particulars: for CATDS: target CHEK1. An excerpt: Briefly, Kinobeads comprise seven broad-spectrum small molecule kinase inhibitors immobilized on Sepharose beads. […]. Compounds of interest are set to compete for target protein binding with Kinobeads in the lysate and the amount of a given protein bound to Kinobeads in the presence of a compound can be quantified relative to a dimethylsulfoxide (DMSO) vehicle control by label-free mass spectrometry. This assay measures the physical interaction of a compound with thousands of endogenous proteins in parallel and, when systematically increasing the concentration of competitor, enables the calculation of an apparent interaction constant ( Kdapp ) for each compound and protein.
Kinobeads pulldown experiments were performed as described previously[13],[14],[17] with minor modification. […] The protein concentration was adjusted to 5 mg ml^−1. Kinase inhibitors were spiked into 0.5 ml of cell lysate at final concentrations of 100 and 1,000 nM (or DMSO, 0.3, 1, 3, 10, 30, 100, 300 and 1,000 nM for full dose experiments). […] Lysates were incubated for 45 min at 4 °C. Subsequently, lysates were incubated with Kinobeads ε (17.5 µl of settled beads) for 30 min at 4 °C. To assess the degree of protein depletion from the lysates by Kinobeads, the flow through of the DMSO control was recovered for a pulldown of pulldown experiment where the lysate was incubated a second time with fresh Kinobeads. Beads were washed in three steps with buffer containing 0.4%, 0.2% and no IGEPAL. Bound proteins were reduced with 50 mM DTT in 8 M Urea, 40 mM Tris-HCl pH 7.4 for 30 min at room temperature. After alkylation with 55 mM chloroacetamide, the urea concentration was reduced to 1–2 M and proteins were digested with trypsin. Acidified peptides were desalted and concentrated using SepPak tC18 µEluation plates (Waters). Samples were frozen, dried by vacuum centrifugation and stored at −20 °C.
Each kinase inhibitor was processed together with all DMSO controls of the same plate. Additionally, each search was supplemented with five high quality DMSO controls for consistent peptide identification and protein grouping. The resultant file (proteinGroups.txt) was used for subsequent filtering, normalization, data visualization and target annotation that was automatically performed by a data processing pipeline built in house that used R (including the ‘drc’ and ‘heatmap’ packages). First, reverse hits, potential contaminants and not quantified proteins in the DMSO control samples were discarded. Protein raw and label-free quantification intensities were normalized to the median DMSO control intensity to obtain relative residual binding intensities for each protein group at every inhibitor concentration and standard deviations of the DMSO control intensity were calculated. IC50 values were estimated based on the following equation IC50=I×100−inhibition/inhibition where [I] is the inhibitor concentration that was used for IC50 calculation and ‘inhibition’ the relative residual binding intensity. […]. Estimated Kdapp values were then calculated by multiplying the estimated IC50 values with a protein-dependent correction factor that was limited to a maximum value of one. The correction factor accounts for the depletion of a target protein from the lysate by Kinobeads. The depletion can be measured by the ratio of the amount of protein captured in two consecutive pulldowns of the same DMSO control lysate. In this study, correction factors were determined in separate experiments using the same lysate mixture and the same bead batch. Correction factors were set to the median of all correction factors. Targets of kinase inhibitors were annotated using the previously published random forest classifier. A training data set was annotated manually. […]

`Nc1ncnc2[nH]c(-c3ccccc3)nc12` [AH5015_KCGS]: the CATDS at MAP3K6 and on CHECK1 was 0 in each case.

As to `CCN1CCN(Cc2ccc(Nc3ncc(F)c(-c4cc(F)c5nc(C)n(C(C)C)c5c4)n3)nc2)CC1` [Abemaciclib], the CATDS on MAP3K6 and on CHECK1 was 0 throughout.

As to `CN(C)C/C=C/C(=O)Nc1cc2c(Nc3ccc(F)c(Cl)c3)ncnc2cc1O[C@H]1CCOC1` [Afatinib], the CATDS at MAP3K6 and at CHECK1 was 0 each time.

As to `CCc1cc2c(cc1N1CCC(N3CCOCC3)CC1)C(C)(C)c1[nH]c3cc(C#N)ccc3c1C2=O` [Alectinib], the CATDS on MAP3K6 and at CHECK1 was 0 throughout.

As to `N#CC1(c2ccc(NC(=O)c3cccnc3NCc3ccncc3)cc2)CCCC1` [Apatinib], the CATDS at MAP3K6 and on CHECK1 was 0 throughout.

`CC(C)N1CC(=O)N(C)c2cnc(Nc3cccc(S(=O)(=O)CCN4CCOCC4)c3)nc21` [BI00009348]: the potency estimated from few doses on MAP3K6 (Kinobeads two-dose, Drugmatrix - all 2, read-out: apparent Kd MAP3K6) is 698 nM.

Regarding `C[C@]12O[C@H](C[C@]1(O)CO)n1c3ccccc3c3c4c(c5c6ccccc6n2c5c31)CNC4=O` [Lestaurtinib], the potency estimated from few doses on CHECK1 (read-out: Lestaurtinib Drugmatrix value, Gene Name CHEK1) is 98 nM.
